For test [1], the system named is Z138 cells. The test can be described thus: MTT cell proliferation assay, Z138. Type of test: cell-based. As to conditions: Homo sapiens, Z-138, Z138 cells, read-out: MTT Assay IC50, Z138. As for the experimental part:
(§1) The MTT cell proliferation assay was used to study the cytotoxic properties of the compounds. The assay was performed according to the method described by Roche Molecular Biochemicals, with minor modifications. The assay is based on the cleavage of the tetrazolium salt, MTT, in the presence of an electron-coupling reagent. The water-insoluble formazan salt produced must be solubilized in an additional step. Cells grown in a 96-well tissue culture plate were incubated with the MTT solution for approximately 4 hours. After this incubation period, a water-insoluble formazan dye formed. After solubilization, the formazan dye was quantitated using a scanning multi-well spectrophotometer (ELISA reader). […] The cells were seeded at 5,000-10,000 cells in each well of 96-well plate in 100 μL of fresh culture medium and were allowed to attach overnight. The stock solutions of the compounds were diluted in 100 μL cell culture medium to obtain eight concentrations of each test compound, ranging from 1 nM to 30 μM. […] All optical densities were measured at 490 nm using a Vmax Kinetic Microplate Reader (Molecular Devices). In most cases, the assay was performed in duplicate and the results were presented as a mean percent inhibition to the negative control±SE. The following formula was used to calculate the percent of inhibition: Inhibition (%)=(1-(ODo/OD)) ×100.
(§2) The compounds were tested against MS751, Z138 and 3T3 cells. The MS751 cell line is derived from a metastasis to lymph node of human cervix from a patient diagnosed with squameous cell carcinoma of the cervix. The Z138 cell line is a mature B-cell acute lymphoblastic leukemia cell line derived from a patient with chronic lumphocytic leukemia. 3T3 cells are standard fibroblast cells; they were originally isolated from Swiss mouse embryo tissue.
For orientation: Tetrazolium assays rely on reduction of a dye to a coloured formazan, in cell work by metabolically active cells.

For test [2], the system named is MS751 cells. The test can be described thus: MTT cell proliferation assay, MS751. Type of test: cell-based, human. As to conditions: Homo sapiens, MS751, MS751 cells, read-out: MTT Assay IC50, MS751. As for the experimental part: as §1, §2
Test [3] has as its system 3T3 cells. The test can be described thus: MTT cell proliferation assay, 3T3. It counts as cell-based, mouse. As to conditions: Mus musculus, NIH3T3, 3T3 cells, read-out: MTT Assay IC50, 3T3. As for the experimental part:
as §1, §2

Setting [4] is: approximately 64-72 hours incubation.
[5] abbreviates: eight concentrations 1 nM to 30 μM, incubation approximately 64-72 hours.

Here are results for 18 compounds from patent US9938258B2 (Karyopharm Therapeutics Inc., priority 2012, dated 2018).

Structures are written as SMILES. Like-named read-outs stand apart in the source and are kept apart here.

The IC50 is the point on the concentration scale where inhibition reaches its midpoint. Turning to `CC(C)(O)c1ccc(-c2cc(Cl)c3c(c2)CC(CNC(=O)/C=C/c2ccc(N)nc2)O3)s1` (stereo not drawn) [Compound 321, (E)-3-(6-aminopyridin-3-yl)-N-((7-chloro-5-(5-(2-hydroxypropan-2-yl)thiophen-2-yl)-2,3-dihydrobenzofuran-2-yl)methyl)acrylamide], the results for the IC50 in test [1] (setting [4]), in test [2] (setting [4]) and in test [3] (setting [4]) were below 0.1 µM, 0.1 to 5 µM and 5 to 30 µM, respectively.

In the case of `CC1(C)CN(C(=O)c2ccc(-c3cc(Cl)c4c(c3)CC(/C=C/C(=O)NCc3ccc(N)nc3)O4)cc2)C1` (stereo not drawn) [Compound 362, (E)-N-((6-aminopyridin-3-yl)methyl)-3-(7-chloro-5-(4-(3,3-dimethylazetidine-1-carbonyl)phenyl)-2,3-dihydrobenzofuran-2-yl)acrylamide], the values for the IC50 in test [1] (setting [4]), in test [2] (setting [4]) and in test [3] (setting [4]) were above 30 µM, below 0.1 µM and below 0.1 µM, respectively.

Consider `CC(=O)c1ccc(-c2cc(Cl)c3c(c2)CC(CNC(=O)/C=C/c2cccnc2)O3)s1` (stereo not drawn) [Compound 27, (E)-N-((5-(5-acetylthiophen-2-yl)-7-chloro-2,3-dihydrobenzofuran-2-yl)methyl)-3-(pyridin-3-yl)acrylamide], for which the IC50 in test [1] (setting [5]) is below 0.1 µM; in test [2] (setting [5]) it was below 0.1 µM; in test [3] (setting [5]), 0.1 to 5 µM.

For the compound `CC(=O)c1ccc(-c2cc(Cl)c3c(c2)CC(CNC(=O)/C=C/c2ccnnc2)O3)s1` (stereo not drawn) [Compound 273, (E)-N-((5-(5-acetylthiophen-2-yl)-7-chloro-2,3-dihydrobenzofuran-2-yl)methyl)-3-(pyridazin-4-yl)acrylamide], the values for the IC50 in test [1] (setting [5]), in test [2] (setting [5]) and in test [3] (setting [5]) were 5 to 30 µM, above 30 µM and above 30 µM, respectively.

For the compound `CC(=O)c1ccc(-c2ccc3c(c2)CC(CNC(=O)/C=C/c2cccnc2)O3)s1` (stereo not drawn) [Compound 292, (E)-N-((5-(5-acetylthiophen-2-yl)-2,3-dihydrobenzofuran-2-yl)methyl)-3-(pyridin-3-yl)acrylamide], the IC50 in test [1] (setting [4]), in test [2] (setting [4]) and in test [3] (setting [4]) was 0.1 to 5 µM each time.

Consider `CC(=O)c1ccc(-c2cc(Cl)c3c(c2)CC(CNC(=O)/C=C/c2cnccn2)O3)s1` (stereo not drawn) [Compound 258, (E)-N-((5-(5-acetylthiophen-2-yl)-7-chloro-2,3-dihydrobenzofuran-2-yl)methyl)-3-(pyrazin-2-yl)acrylamide], for which the IC50 in test [1] (setting [5]), in test [2] (setting [5]) and in test [3] (setting [5]) was above 30 µM each time.

For the compound `CN(C)C(=O)c1ccc(-c2cc(Cl)c3c(c2)CC(CNC(=O)/C=C/c2ccc(N)nc2)O3)o1` (stereo not drawn) [Compound 324, (E)-5-(2-((3-(6-Aminopyridin-3-yl)acrylamido)methyl)-7-chloro-2,3-dihydrobenzofuran-5-yl)-N,N-dimethylfuran-2-carboxamide], the IC50 in test [1] (setting [4]) was below 0.1 µM; in test [2] (setting [4]), below 0.1 µM; in test [3] (setting [4]), 5 to 30 µM.

With `Nc1ccc(/C=C/C(=O)NCC2Cc3cc(-c4ncc(C(=O)N5CCOCC5)cn4)cc(Cl)c3O2)cn1` (stereo not drawn) [Compound 330, (E)-3-(6-Aminopyridin-3-yl)-N-((7-chloro-5-(5-(morpholine-4-carbonyl)pyrimidin-2-yl)-2,3-dihydrobenzofuran-2-yl)methyl)acrylamide], the figures for the half-inhibitory concentration (IC50) in test [1] (setting [4]), in test [2] (setting [4]) and in test [3] (setting [4]) were below 0.1 µM, below 0.1 µM and 5 to 30 µM, respectively.

For `CC(=O)c1ccc(-c2cc(Cl)c3c(c2)CC(CNC(=O)/C=C/c2c(C)nn(-c4ccccc4)c2Cl)O3)s1` (stereo not drawn) [Compound 211, (E)-N-((5-(5-acetylthiophen-2-yl)-7-chloro-2,3-dihydrobenzofuran-2-yl)methyl)-3-(5-chloro-3-methyl-1-phenyl-1H-pyrazol-4-yl)acrylamide], the IC50 in test [1] (setting [4]), in test [2] (setting [4]) and in test [3] (setting [4]) was above 30 µM in each case.

For `CC(=O)c1ccc(-c2cc(Cl)c3c(c2)CC(CNC(=O)/C=C/c2c(C)nn(CC(C)C)c2Cl)O3)s1` (stereo not drawn) [Compound 154, (E)-N-((5-(5-acetylthiophen-2-yl)-7-chloro-2,3-dihydrobenzofuran-2-yl)methyl)-3-(5-chloro-1-isobutyl-3-methyl-1H-pyrazol-4-yl)acrylamide], the IC50 in test [1] (setting [5]), in test [2] (setting [5]) and in test [3] (setting [5]) was above 30 µM each time.

`CC(=O)c1ccc(-c2cc(Cl)c3c(c2)CC(CNC(=O)/C=C/c2cnc(C(C)(C)C)s2)O3)s1` (stereo not drawn) [Compound 205, (E)-N-((5-(5-acetylthiophen-2-yl)-7-chloro-2,3-dihydrobenzofuran-2-yl)methyl)-3-(2-tert-butylthiazol-5-yl)acrylamide]: the results for the IC50 in test [1] (setting [4]), in test [2] (setting [4]) and in test [3] (setting [4]) were 0.1 to 5 µM, 5 to 30 µM and above 30 µM, respectively.

Take `Nc1ccc(/C=C/C(=O)NCC2Cc3c(-c4ccc(C(=O)N5CCOCC5)nc4)ccc(Cl)c3O2)cn1` (stereo not drawn) [Compound 910, (E)-3-(6-aminopyridin-3-yl)-N-((7-chloro-4-(6-(morpholine-4-carbonyl)pyridin-3-yl)-2,3-dihydrobenzofuran-2-yl)methyl)acrylamide]: the IC50 in test [1] (setting [4]) is below 0.1 µM; in test [2] (setting [4]), 0.1 to 5 µM; in test [3] (setting [4]) it was 5 to 30 µM.

On to `Nc1ccc(CNC(=O)/C=C/C2Cc3cc(-c4ccc(C(=O)N5CC(F)C5)cc4)cc(Cl)c3O2)cn1` (stereo not drawn) [Compound 361, (E)-N-((6-Aminopyridin-3-yl)methyl)-3-(7-chloro-5-(4-(3-fluoroazetidine-1-carbonyl)phenyl)-2,3-dihydrobenzofuran-2-yl)acrylamide], for which the IC50 in test [1] (setting [4]), in test [2] (setting [4]) and in test [3] (setting [4]) was 0.1 to 5 µM in each case.

Turning to `CC(=O)c1ccc(-c2cc(Cl)c3c(c2)CC(CNC(=O)/C(C#N)=C/c2cccnc2)O3)s1` (stereo not drawn) [Compound 195, (E)-N-((5-(5-acetylthiophen-2-yl)-7-chloro-2,3-dihydrobenzofuran-2-yl)methyl)-2-cyano-3-(pyridin-3-yl)acrylamide], the IC50 is 5 to 30 µM in test [1] (setting [4]), 5 to 30 µM in test [2] (setting [4]) and above 30 µM in test [3] (setting [4]).

Take `Nc1ccccc1-c1cc(Cl)c2c(c1)CC(CNC(=O)/C=C/c1cccnc1)O2` (stereo not drawn) [Compound 84, (E)-N-((5-(2-aminophenyl)-7-chloro-2,3-dihydrobenzofuran-2-yl)methyl)-3-(pyridin-3-yl)acrylamide]: the IC50 fell in the range of 0.1 to 5 µM in test [1] (setting [5]), 0.1 to 5 µM in test [2] (setting [5]) and 5 to 30 µM in test [3] (setting [5]).

Consider `Nc1ccc(/C=C/C(=O)NCC2Cc3c(-c4ccccc4C(=O)N4CCOCC4)ccc(Cl)c3O2)cn1` (stereo not drawn) [Compound 344, (E)-3-(6-aminopyridin-3-yl)-N-((7-chloro-4-(2-(morpholine-4-carbonyl)phenyl)-2,3-dihydrobenzofuran-2-yl)methyl)acrylamide], for which the IC50 in test [1] (setting [4]) is 0.1 to 5 µM; in test [2] (setting [4]), below 0.1 µM; in test [3] (setting [4]), below 0.1 µM.

Turning to `CC(=O)c1ccc(-c2cc(Cl)c3c(c2)CC(CNC(=O)/C=C/C2C(Cl)=NC4=CC=CCN42)O3)s1` (stereo not drawn) [Compound 120, (E)-N-((5-(5-Acetylthiophen-2-yl)-7-chloro-2,3-dihydrobenzofuran-2-yl)methyl)-3-(2-chloro-3,5-dihydroimidazo[1,2-a]pyridin-3-yl)acrylamide], the IC50 in test [1] (setting [5]), in test [2] (setting [5]) and in test [3] (setting [5]) was 5 to 30 µM in each case.

As to `CC(=O)c1ccc(-c2cc(Cl)c3c(c2)CC(CNC(=O)/C=C/c2cnc(N)nc2)O3)s1` (stereo not drawn) [Compound 104, (E)-N-((5-(5-acetylthiophen-2-yl)-7-chloro-2,3-dihydrobenzofuran-2-yl)methyl)-3-(2-aminopyrimidin-5-yl)acrylamide], the IC50 in test [1] (setting [5]), in test [2] (setting [5]) and in test [3] (setting [5]) was above 30 µM in each case.
